The source of these data is patent US10028961B2, “Therapeutically active compounds and their methods of use” (AGIOS PHARMACEUTICALS, INC., priority 2013, dated 2018).

A value given as a limit tells only on which side of the number the result lay.

The target in assay [1] is IDH1 wt/IDH1 R132C heterodimer (Homo sapiens (Human), UniProt O75874, R132C). As to the kind of experiment: In vitro assay for IDH1m R132C inhibitors, IDH1 wt/IDH1 R132C heterodimer, NADPH depletion (diaphorase/resazurin). As to conditions: NADPH/NADP. Format: biochemical. The essentials:
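Remaining NADPH was measured by diaphorase/resazurin conversion (5 min, 25 °C) as resorufin fluorescence, Ex 544/Em 590. DMSO was diluted 1:50 into the reaction, and IC50s were derived.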

In assay [2] the target is IDH1-R132H homodimer enzyme (Homo sapiens (Human), UniProt O75874, R132H). As to the kind of experiment: In vitro assay IDH1-R132H homodimer, NADPH depletion assay with NADPH/NADP preincubation. It is filed as biochemical. As to conditions: 5 μM NADPH and 37.5 μM NADP. Summed up:
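Conversion of alpha-ketoglutarate to 2-hydroxyglutarate tracked by NADPH depletion. Reaction started with 5 mM alpha-ketoglutarate plus NADPH substrate mix (50 μl total), 60 min at room temperature. Leftover NADPH quantified via diaphorase/resazurin fluorescence.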

In assay [3] the test system is Neurosphere cells (TS603). The assay can be described thus: Cellular assay for IDH1m R132H inhibitors, 2-HG by LC-MS in neurosphere cells (TS603). Format: cell-based. As to conditions: 2-HG in media at 48 hours. The essentials: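 TS603 neurosphere cells in NeuroCult medium were dosed with compound (0.25% DMSO final) at 37 C, 5% CO2. After 48 hours, medium 2-HG was measured by LC-MS. At 72 hours, viability was read by CellTiter-Glo luminescence.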

The next assay concerns the target IDH2 R140Q (Homo sapiens (Human), UniProt P48735, R140Q). The assay can be described thus: In vitro assay for IDH2m R140Q inhibitors, cofactor depletion assay. Format: biochemical. As to conditions: IDH2 R140Q enzyme. The essentials: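 Remaining cofactor measured fluorimetrically: diaphorase/resazurin Stop Mix […], halting the reaction. Before that, mutant enzyme and compound sat 1 h at RT, then substrate mix (4 μM NADPH, 1.6 mM α-KG) was added for 16 h at RT.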

In assay [4] the test system is U87MG pLVX-IDH2 R140Q-neo cells. As to the kind of experiment: U87MG pLVX-IDH2 R140Q-neo cell based assay, 2-HG by LC-MS. As to conditions: Homo sapiens, U-87 MG.

Sequence of IDH1-R132H homodimer enzyme (O75874 whole entry R132H): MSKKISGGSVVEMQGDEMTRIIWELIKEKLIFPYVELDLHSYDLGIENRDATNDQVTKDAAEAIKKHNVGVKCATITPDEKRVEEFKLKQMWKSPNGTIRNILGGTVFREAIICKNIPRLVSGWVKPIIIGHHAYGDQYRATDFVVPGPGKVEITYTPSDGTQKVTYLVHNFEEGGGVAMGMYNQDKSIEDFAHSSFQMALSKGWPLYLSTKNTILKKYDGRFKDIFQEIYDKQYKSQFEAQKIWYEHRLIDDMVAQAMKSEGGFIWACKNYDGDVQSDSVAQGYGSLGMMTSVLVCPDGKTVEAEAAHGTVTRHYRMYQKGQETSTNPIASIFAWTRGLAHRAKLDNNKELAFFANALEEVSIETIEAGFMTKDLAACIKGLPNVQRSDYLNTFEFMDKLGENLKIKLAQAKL
Sequence of IDH2 R140Q (P48735 40-452 R140Q): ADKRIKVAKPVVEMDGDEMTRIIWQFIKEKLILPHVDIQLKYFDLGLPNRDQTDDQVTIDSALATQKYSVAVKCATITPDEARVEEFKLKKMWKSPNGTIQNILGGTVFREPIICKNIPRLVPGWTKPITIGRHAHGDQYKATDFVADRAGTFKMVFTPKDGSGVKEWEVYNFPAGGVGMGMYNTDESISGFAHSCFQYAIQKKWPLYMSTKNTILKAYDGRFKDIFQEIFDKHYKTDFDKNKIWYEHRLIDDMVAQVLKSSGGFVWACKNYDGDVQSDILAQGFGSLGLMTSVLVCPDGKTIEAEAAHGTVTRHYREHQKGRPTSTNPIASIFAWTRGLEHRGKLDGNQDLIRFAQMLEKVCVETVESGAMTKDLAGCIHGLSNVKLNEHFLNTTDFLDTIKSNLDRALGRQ
Sequence of IDH1 wt/IDH1 R132C heterodimer (O75874 whole entry R132C): as the sequence (O75874 whole entry R132H) above, with H132C counted along it
Sequence of IDH1 wt/IDH1 R132C heterodimer (O75874 whole entry, stated change not applied): as the sequence (O75874 whole entry R132H) above, with H132R counted along it

What is called IC50 is the concentration at which inhibition is half-maximal. A lower IC50 goes with greater potency. Turning to `FC1(F)CCC(Nc2nc(NC3CCC(F)(F)C3)nc(-c3cccc(OC(F)(F)F)n3)n2)C1` (stereo not drawn) [Compound 252], the IC50 was 100 to 1000 nM in assay [1]; more than 1000 nM in assay [2]; 50 to 100 nM in assay [3]; less than 50 nM against IDH2 R140Q; less than 50 nM in assay [4].

On to `N#CC1(c2cc(Nc3nc(NC4CCC(F)(F)C4)nc(-c4cccc(Cl)n4)n3)ccn2)CC1` (stereo not drawn) [Compound 127], for which the concentration for half-maximal inhibition (IC50) (in assay [1]; in assay [2]; in assay [3]; against IDH2 R140Q; in assay [4]) was less than 50 nM throughout.

In the case of `N#CC1(c2cc(Nc3nc(NCC(F)(F)F)nc(-c4cccc(C(F)(F)F)n4)n3)ccn2)CC1` [Compound 226], the IC50 in assay [1] is 50 to 100 nM; in assay [2] it was 100 to 1000 nM; in assay [3] it was less than 50 nM; against IDH2 R140Q it was less than 50 nM; in assay [4], less than 50 nM.

Turning to `N#Cc1cc(Nc2nc(NC3CC(F)(F)C3)nc(-c3cccc(C(F)(F)F)n3)n2)ccn1` [Compound 213], the IC50 in assay [1] is less than 50 nM; in assay [2], 50 to 100 nM; in assay [3] it was less than 50 nM; against IDH2 R140Q, less than 50 nM; in assay [4] it was less than 50 nM.

`N#Cc1cc(F)cc(Nc2nc(NC3CCC(F)(F)CC3)nc(-c3cccc(C(F)(F)F)n3)n2)c1` [Compound 164]: the IC50 is less than 50 nM in assay [1]; 50 to 100 nM in assay [2]; less than 50 nM in assay [3]; less than 50 nM against IDH2 R140Q; less than 50 nM in assay [4].

As to `CC(CC#N)Nc1nc(N[C@H](C)C2CC2)nc(-c2cccc(C(F)(F)F)n2)n1` (stereo partly drawn) [Compound 214], the IC50 is less than 50 nM in assay [1]; 100 to 1000 nM in assay [2]; less than 50 nM in assay [3]; less than 50 nM against IDH2 R140Q; less than 50 nM in assay [4].

With `N#Cc1cc(Nc2nc(NC3CCC(F)(F)C3)nc(-c3cccc(C(F)(F)F)n3)n2)ccn1` (stereo not drawn) [Compound 181], the IC50 (in assay [1]; in assay [2]; in assay [3]; against IDH2 R140Q; in assay [4]) was less than 50 nM in each case.

As for `FC1(F)CCC(Nc2nc(NC3CCC(F)(F)CC3)nc(-c3nccc(C(F)(F)F)n3)n2)CC1` [Compound 293], the IC50 in assay [1] was 100 to 1000 nM; in assay [2], more than 1000 nM; in assay [3], not below 1000 nM; against IDH2 R140Q, 50 to 100 nM; in assay [4], 50 to 100 nM.

`CC(C)(C)Nc1nc(Nc2ccnc(C#N)c2)nc(-c2cccc(C(F)(F)F)n2)n1` [Compound 162]: the IC50 (in assay [1]; in assay [2]; in assay [3]; on IDH2 R140Q; in assay [4]) was less than 50 nM in each case.

Take `N#CC1(c2cc(Nc3nc(NC4CCC(F)(F)CC4)nc(-c4cccc(C(F)(F)F)n4)n3)ccn2)CC1` [Compound 189]: the IC50 in assay [1] is less than 50 nM; in assay [2], 100 to 1000 nM; in assay [3], less than 50 nM; on IDH2 R140Q, less than 50 nM; in assay [4], less than 50 nM.

Take `FC1(F)CC(Nc2nc(NC3CC(F)(F)C3)nc(-c3cccc(C(F)(F)F)n3)n2)C1` [Compound 149]: the IC50 (in assay [1]; in assay [2]; in assay [3]; against IDH2 R140Q; in assay [4]) was less than 50 nM in each case.

As for `C[C@@H](Nc1nc(NC(C2CC2)C2CC2)nc(-c2cccc(C(F)(F)F)n2)n1)C1CC1` [Compound 193], the IC50 was less than 50 nM in assay [1]; 50 to 100 nM in assay [2]; less than 50 nM in assay [3]; less than 50 nM at IDH2 R140Q; less than 50 nM in assay [4].

On to `FC1(F)CCC(Nc2nc(NC3Cc4ccc(Cl)cc4C3)nc(-c3cccc(C(F)(F)F)n3)n2)C1` (stereo not drawn) [Compound 182], for which the IC50 in assay [1] is less than 50 nM; in assay [2], 100 to 1000 nM; in assay [3] it was less than 50 nM; at IDH2 R140Q, less than 50 nM; in assay [4], less than 50 nM.

Consider `FC1(F)CCC(Nc2nc(NC3CCN(c4ncccn4)C3)nc(-c3cccc(C(F)(F)F)n3)n2)C1` (stereo not drawn) [Compound 227], for which the IC50 was 50 to 100 nM in assay [1]; 100 to 1000 nM in assay [2]; less than 50 nM in assay [3]; 100 to 1000 nM against IDH2 R140Q; 100 to 1000 nM in assay [4].

As to `CC(C)(C#N)Nc1nc(Nc2ccnc(C(C)(F)F)c2)nc(-c2cccc(C(F)(F)F)n2)n1` [Compound 247], the IC50 in assay [1] was 50 to 100 nM; in assay [2], 100 to 1000 nM; in assay [3], less than 50 nM; against IDH2 R140Q it was less than 50 nM; in assay [4], less than 50 nM.

Consider `FC1(F)CCC(Nc2nc(NC3CCC(F)(F)CC3)nc(-n3ccc(C(F)(F)F)n3)n2)CC1` [Compound 176], for which the IC50 in assay [1] was less than 50 nM; in assay [2], 100 to 1000 nM; in assay [3], less than 50 nM; on IDH2 R140Q, less than 50 nM; in assay [4], less than 50 nM.

Regarding `FC(F)c1cccc(-c2nc(NC3CC(F)(F)C3)nc(NC3CC(F)(F)C3)n2)n1` [Compound 145], the IC50 (in assay [1]; in assay [2]; in assay [3]; against IDH2 R140Q; in assay [4]) was less than 50 nM in each case.

For `FC1(F)CCC(Nc2nc(NC3CC4(C3)CC(F)(F)C4)nc(-c3cccc(C(F)(F)F)n3)n2)C1` (stereo not drawn) [Compound 191], the IC50 in assay [1] was less than 50 nM; in assay [2], 100 to 1000 nM; in assay [3] it was less than 50 nM; against IDH2 R140Q, less than 50 nM; in assay [4], less than 50 nM.

`CC(C#N)Nc1nc(Nc2ccnc(C(C)(F)F)c2)nc(-c2cccc(C(F)(F)F)n2)n1` (stereo not drawn) [Compound 253]: the IC50 in assay [1] is 100 to 1000 nM; in assay [2] it was 100 to 1000 nM; in assay [3], less than 50 nM; at IDH2 R140Q, less than 50 nM; in assay [4], less than 50 nM.

Take `CC(Nc1nc(N[C@H](C)C2CC2)nc(-c2cccc(C(F)(F)F)n2)n1)C(F)(F)F` (stereo partly drawn) [Compound 203]: the concentration for half-maximal inhibition (IC50) (in assay [1]; in assay [2]; in assay [3]; against IDH2 R140Q; in assay [4]) was less than 50 nM throughout.

Turning to `FC1(F)CCC(Nc2nc(Nc3ccnc(C(F)(F)F)c3)nc(-c3cccc(C(F)(F)F)n3)n2)C1` (stereo not drawn) [Compound 178], the IC50 is less than 50 nM in assay [1]; 50 to 100 nM in assay [2]; less than 50 nM in assay [3]; less than 50 nM against IDH2 R140Q; less than 50 nM in assay [4].

As for `FC1(F)CC(Nc2nc(NC3CC(F)(F)C3)nc(-c3csc(C(F)(F)F)n3)n2)C1` [Compound 170], the concentration for half-maximal inhibition (IC50) was less than 50 nM in assay [1]; 100 to 1000 nM in assay [2]; less than 50 nM in assay [3]; less than 50 nM on IDH2 R140Q; less than 50 nM in assay [4].

On to `CC(CC#N)Nc1nc(Nc2ccnc(C(C)(F)F)c2)nc(-c2cccc(C(F)(F)F)n2)n1` (stereo not drawn) [Compound 250], for which the IC50 in assay [1] is 100 to 1000 nM; in assay [2] it was 100 to 1000 nM; in assay [3] it was less than 50 nM; on IDH2 R140Q it was 100 to 1000 nM; in assay [4], less than 50 nM.

Consider `FC1(F)CCC(Nc2nc(NC3CCC(F)(F)C3)nc(-c3cccc(Cl)n3)n2)C1` (stereo not drawn) [Compound 113], for which the concentration for half-maximal inhibition (IC50) (in assay [1]; in assay [2]; in assay [3]; against IDH2 R140Q; in assay [4]) was less than 50 nM each time.

With `CC(F)(F)c1cccc(-c2nc(NC3CCC(F)(F)C3)nc(NC3CCC(F)(F)C3)n2)n1` (stereo not drawn) [Compound 105], the IC50 (in assay [1]; in assay [2]; in assay [3]; on IDH2 R140Q; in assay [4]) was less than 50 nM each time.

`Fc1ccc([C@H]2C[C@@H](Nc3nc(NC4CCC(F)(F)C4)nc(-c4cccc(C(F)(F)F)n4)n3)C2)cc1` (stereo partly drawn) [Compound 199]: the IC50 in assay [1] is less than 50 nM; in assay [2], 100 to 1000 nM; in assay [3], less than 50 nM; at IDH2 R140Q, less than 50 nM; in assay [4], less than 50 nM.

In the case of `CC(F)(F)c1cccc(-c2nc(NC3CC(F)(F)C3)nc(NC3CC(F)(F)C3)n2)n1` [Compound 187], the IC50 in assay [1] was less than 50 nM; in assay [2], 100 to 1000 nM; in assay [3], less than 50 nM; against IDH2 R140Q, less than 50 nM; in assay [4] it was less than 50 nM.

For `FC1(F)CCC(Nc2nc(Nc3ccnc(C(F)(F)F)c3)nc(-c3cccc(Cl)n3)n2)C1` (stereo not drawn) [Compound 115], the IC50 (in assay [1]; in assay [2]; in assay [3]; against IDH2 R140Q; in assay [4]) was less than 50 nM each time.

In the case of `FC1(F)CCC(Nc2nc(NC3CCC(F)(F)C3)nc(-n3ccc(C(F)(F)F)n3)n2)C1` (stereo not drawn) [Compound 146], the IC50 (in assay [1]; in assay [2]; in assay [3]; against IDH2 R140Q; in assay [4]) was less than 50 nM throughout.

Regarding `N#CC1(c2cc(Nc3nc(NC4CCC(F)(F)C4)nc(-c4nccc(C(F)(F)F)n4)n3)ccn2)CC1` (stereo not drawn) [Compound 261], the IC50 was 50 to 100 nM in assay [1]; more than 1000 nM in assay [2]; 50 to 100 nM in assay [3]; less than 50 nM at IDH2 R140Q; less than 50 nM in assay [4].
